# Calls of active or inactive are those of the source.
# Key:
# Cytochrome P450 2C19 = Cytochrome P450 2C19 (Homo sapiens, UniProt P33261); test: qHTS Assay for Inhibitors and Substrates of Cytochrome P450 2C19. [Related pubchem assays: 410 ]; format: ADME; conditions: read-out: Potency
# Cytochrome P450 2D6 = Cytochrome P450 2D6 (Homo sapiens, UniProt P10635); test: qHTS Assay for Inhibitors and Substrates of Cytochrome P450 2D6. [Related pubchem assays: 410 ]; format: ADME; conditions: read-out: Potency
# Chain of Cytochrome P450 2D6 (P10635 whole entry): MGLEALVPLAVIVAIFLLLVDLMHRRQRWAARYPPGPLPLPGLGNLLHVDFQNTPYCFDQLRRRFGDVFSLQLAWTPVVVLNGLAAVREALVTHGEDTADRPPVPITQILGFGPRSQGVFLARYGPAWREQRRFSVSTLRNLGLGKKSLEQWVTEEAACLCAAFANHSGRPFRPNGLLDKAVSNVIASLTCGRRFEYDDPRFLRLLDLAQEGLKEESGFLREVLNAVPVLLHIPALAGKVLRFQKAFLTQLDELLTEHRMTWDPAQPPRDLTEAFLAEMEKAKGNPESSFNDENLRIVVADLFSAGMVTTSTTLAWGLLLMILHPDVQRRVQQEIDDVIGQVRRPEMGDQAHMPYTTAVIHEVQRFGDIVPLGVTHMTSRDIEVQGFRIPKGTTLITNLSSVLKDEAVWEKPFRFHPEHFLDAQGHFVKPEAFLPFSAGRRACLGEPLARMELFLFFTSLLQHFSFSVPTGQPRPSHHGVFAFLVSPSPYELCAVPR
# [1] = target: Lysosomal acid glucosylceramidase (Homo sapiens, UniProt P04062); test: Dose response cell-based high throughput screening assay to identify enhancers of beta-glucosidase activity. [Related pubchem assays: 784 ]; format: functional
# Chain of Lysosomal acid glucosylceramidase (P04062 whole entry): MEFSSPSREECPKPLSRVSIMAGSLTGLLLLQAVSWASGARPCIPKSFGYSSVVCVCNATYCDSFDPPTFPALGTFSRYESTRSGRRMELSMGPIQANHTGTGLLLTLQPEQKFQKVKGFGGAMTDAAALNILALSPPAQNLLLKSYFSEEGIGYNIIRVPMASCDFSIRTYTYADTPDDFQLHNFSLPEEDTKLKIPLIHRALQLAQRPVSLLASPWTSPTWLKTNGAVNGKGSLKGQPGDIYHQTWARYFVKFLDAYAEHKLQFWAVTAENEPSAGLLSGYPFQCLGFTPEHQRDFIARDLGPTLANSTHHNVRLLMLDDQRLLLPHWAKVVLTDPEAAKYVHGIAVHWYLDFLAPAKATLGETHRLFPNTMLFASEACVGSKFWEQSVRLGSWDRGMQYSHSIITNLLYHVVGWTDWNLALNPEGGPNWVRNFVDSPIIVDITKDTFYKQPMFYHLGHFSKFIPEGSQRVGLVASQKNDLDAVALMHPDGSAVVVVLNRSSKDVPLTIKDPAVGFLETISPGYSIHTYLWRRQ
# [2] = A cytotoxicity screen of small molecule inhibitors of the PhoP region in Salmonella typhi identified in the primary screen. [Related pubchem assays: 1850, 1864, 1985 ]; format: functional
# [3] = target: Voltage-dependent T-type calcium channel subunit alpha-1H (Homo sapiens, UniProt O95180); format: functional;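 also: channel activity triggered by adding a high calcium stimulation buffer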
# Chain of Voltage-dependent T-type calcium channel subunit alpha-1H (O95180 whole entry): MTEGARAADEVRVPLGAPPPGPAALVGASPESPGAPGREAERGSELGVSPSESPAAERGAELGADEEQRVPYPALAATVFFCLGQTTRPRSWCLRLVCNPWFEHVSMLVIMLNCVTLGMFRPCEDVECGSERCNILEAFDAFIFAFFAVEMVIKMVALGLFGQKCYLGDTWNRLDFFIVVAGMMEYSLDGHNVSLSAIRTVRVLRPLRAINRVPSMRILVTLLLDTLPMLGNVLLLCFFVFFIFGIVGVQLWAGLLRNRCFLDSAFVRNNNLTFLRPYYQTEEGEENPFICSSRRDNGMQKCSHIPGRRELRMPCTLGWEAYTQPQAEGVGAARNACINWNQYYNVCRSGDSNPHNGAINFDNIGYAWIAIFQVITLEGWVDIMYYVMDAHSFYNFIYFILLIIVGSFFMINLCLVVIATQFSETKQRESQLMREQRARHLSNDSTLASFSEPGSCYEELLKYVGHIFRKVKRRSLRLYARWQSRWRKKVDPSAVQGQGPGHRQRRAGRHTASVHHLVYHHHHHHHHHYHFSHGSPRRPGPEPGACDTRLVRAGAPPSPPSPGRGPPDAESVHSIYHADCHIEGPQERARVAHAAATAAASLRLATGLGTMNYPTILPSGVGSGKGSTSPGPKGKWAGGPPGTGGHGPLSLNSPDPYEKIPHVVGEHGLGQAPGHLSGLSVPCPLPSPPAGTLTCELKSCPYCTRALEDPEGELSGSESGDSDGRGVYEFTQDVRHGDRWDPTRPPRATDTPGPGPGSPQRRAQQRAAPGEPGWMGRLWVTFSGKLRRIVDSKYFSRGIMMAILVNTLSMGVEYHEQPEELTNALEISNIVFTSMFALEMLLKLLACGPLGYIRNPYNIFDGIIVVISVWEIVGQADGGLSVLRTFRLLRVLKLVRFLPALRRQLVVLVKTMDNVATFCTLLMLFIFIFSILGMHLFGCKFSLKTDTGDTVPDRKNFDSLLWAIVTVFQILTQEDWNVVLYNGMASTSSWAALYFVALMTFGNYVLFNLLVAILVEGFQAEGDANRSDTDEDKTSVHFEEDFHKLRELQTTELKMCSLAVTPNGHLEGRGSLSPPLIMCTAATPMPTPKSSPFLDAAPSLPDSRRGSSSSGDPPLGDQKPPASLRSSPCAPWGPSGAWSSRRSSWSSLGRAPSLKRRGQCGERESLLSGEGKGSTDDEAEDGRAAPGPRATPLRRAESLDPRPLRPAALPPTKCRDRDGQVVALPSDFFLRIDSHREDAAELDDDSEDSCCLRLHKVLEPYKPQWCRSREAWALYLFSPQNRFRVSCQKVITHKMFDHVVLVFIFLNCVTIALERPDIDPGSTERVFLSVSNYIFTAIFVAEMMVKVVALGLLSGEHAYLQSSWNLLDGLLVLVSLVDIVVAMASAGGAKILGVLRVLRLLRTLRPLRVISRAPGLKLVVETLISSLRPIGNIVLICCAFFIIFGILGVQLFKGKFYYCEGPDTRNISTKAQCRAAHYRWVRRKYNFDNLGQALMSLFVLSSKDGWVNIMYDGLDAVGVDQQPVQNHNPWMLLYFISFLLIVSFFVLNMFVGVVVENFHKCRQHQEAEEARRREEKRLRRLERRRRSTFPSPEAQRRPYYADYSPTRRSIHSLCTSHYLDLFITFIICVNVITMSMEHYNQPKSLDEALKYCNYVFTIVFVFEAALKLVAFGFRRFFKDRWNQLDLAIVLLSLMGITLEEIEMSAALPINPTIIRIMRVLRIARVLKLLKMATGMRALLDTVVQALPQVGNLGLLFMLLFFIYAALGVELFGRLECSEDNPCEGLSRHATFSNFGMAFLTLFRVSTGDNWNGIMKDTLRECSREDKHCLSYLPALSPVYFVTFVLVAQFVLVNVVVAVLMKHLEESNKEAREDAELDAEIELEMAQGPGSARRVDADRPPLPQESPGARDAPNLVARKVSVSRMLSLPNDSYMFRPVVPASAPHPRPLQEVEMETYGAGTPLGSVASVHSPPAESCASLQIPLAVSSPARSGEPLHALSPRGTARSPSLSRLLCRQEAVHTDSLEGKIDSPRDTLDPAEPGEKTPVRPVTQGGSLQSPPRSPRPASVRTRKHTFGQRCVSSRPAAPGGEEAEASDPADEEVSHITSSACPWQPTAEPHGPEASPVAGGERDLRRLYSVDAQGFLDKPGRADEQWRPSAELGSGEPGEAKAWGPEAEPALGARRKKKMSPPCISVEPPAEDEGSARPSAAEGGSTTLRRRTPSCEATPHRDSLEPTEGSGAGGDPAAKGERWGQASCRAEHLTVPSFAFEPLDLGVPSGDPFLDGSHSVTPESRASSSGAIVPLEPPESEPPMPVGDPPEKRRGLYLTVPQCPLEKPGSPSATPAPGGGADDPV
# Protein Rev = Protein Rev (Human immunodeficiency virus type 1 group M subtype B (isolate HXB2)(HIV-1), UniProt P04618); test: blockers of HIV Rev/RRE RNA complex – biochemical, fluorescence polarization, HIV-1, dose response (AID 434976); parameters: species or system Human immunodeficiency virus 1
# Chain of Protein Rev (P04618 whole entry): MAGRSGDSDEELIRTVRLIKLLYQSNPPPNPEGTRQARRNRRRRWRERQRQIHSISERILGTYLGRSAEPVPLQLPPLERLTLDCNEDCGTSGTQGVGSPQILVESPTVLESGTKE
# [4] = target: Female germline-specific tumor suppressor gld-1 (Caenorhabditis elegans, UniProt Q17339); test: blockers of GLD-1/TGE RNA complex formation – biochemical, fluorescence polarization, C. elegans, dose response (AID 2802);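 also: fluorescence polarization of labeled TGE RNA bound by purified gld-1 protein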
# Chain of Female germline-specific tumor suppressor gld-1 (Q17339 whole entry): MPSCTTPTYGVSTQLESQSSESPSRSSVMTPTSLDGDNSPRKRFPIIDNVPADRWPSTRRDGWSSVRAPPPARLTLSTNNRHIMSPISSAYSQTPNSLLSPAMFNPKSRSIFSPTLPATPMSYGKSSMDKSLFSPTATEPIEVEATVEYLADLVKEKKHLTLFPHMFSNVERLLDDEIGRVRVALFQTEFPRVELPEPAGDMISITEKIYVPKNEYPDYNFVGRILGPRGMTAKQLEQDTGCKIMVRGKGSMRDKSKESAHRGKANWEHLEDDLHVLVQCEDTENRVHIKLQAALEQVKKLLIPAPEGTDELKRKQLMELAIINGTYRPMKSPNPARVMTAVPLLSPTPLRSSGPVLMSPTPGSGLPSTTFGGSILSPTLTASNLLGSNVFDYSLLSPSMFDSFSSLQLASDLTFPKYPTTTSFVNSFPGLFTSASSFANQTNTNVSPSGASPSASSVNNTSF
# [5] = target: G-protein coupled receptor 55 (Homo sapiens, UniProt Q9Y2T6); test: selective activators of receptor GPR55 – imaging, U2OS cells, beta-arrestin-GFP redistribution, primary screen (AID 1961); format: functional
# Chain of G-protein coupled receptor 55 (Q9Y2T6 whole entry, the tested form may be a part): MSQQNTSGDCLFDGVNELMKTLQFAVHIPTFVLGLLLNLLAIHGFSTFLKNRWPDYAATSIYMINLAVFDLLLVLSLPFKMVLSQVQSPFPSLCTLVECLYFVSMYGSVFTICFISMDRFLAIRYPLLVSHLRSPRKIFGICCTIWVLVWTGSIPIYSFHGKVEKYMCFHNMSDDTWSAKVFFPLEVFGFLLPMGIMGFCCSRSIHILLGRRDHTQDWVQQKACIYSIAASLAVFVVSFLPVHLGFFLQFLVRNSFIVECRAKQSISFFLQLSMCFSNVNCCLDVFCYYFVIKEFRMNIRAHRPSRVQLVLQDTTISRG
# [6] = luciferase reporter signal reduction – luminescence, H4-C neuroglioblastoma cells, dose response (AID 2458); format: functional, cell-based;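 also: H4 neuroglioblastoma cells stably carrying a luciferase reporter gene fusion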
# [7] = target: T1, RNA-binding protein pos-1 (Caenorhabditis elegans, UniProt G5EF15); test: disruptors of C. elegans POS-1 RNA interaction – biochemical, fluorescence polarization, dose response (AID 1964);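 also: purified POS-1 fused to maltose binding protein made in E. coli; potency of compounds blocking POS-1 binding to fluorescent RNA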
# T1 sequence (G5EF15 whole entry): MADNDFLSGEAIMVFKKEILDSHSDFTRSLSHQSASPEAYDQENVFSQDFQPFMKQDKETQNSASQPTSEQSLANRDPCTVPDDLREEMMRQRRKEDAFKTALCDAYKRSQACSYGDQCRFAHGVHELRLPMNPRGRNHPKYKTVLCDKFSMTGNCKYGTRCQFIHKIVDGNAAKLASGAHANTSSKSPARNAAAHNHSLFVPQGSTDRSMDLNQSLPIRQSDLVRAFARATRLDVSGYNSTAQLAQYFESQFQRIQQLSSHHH
# cells = format: functional, cell-based
# [8] = target: T2, Zinc finger protein mex-5 (Caenorhabditis elegans, UniProt Q9XUB2); test: potency of MEX-5 RNA-binding blockers – biochemical, C. elegans, fluorescence polarization, dose response (AID 1960)
# T2 sequence (Q9XUB2 whole entry): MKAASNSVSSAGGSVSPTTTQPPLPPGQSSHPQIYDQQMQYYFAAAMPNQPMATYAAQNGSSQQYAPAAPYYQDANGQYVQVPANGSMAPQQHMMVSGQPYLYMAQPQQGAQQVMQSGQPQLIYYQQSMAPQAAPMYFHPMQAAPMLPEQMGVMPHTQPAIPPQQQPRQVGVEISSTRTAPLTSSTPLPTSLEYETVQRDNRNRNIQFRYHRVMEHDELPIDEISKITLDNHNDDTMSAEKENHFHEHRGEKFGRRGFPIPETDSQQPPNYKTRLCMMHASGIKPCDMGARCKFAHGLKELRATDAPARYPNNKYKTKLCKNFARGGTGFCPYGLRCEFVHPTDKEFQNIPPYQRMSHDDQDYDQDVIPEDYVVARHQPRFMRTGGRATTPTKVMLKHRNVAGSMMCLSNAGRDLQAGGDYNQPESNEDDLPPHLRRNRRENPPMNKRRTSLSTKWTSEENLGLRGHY
# [9] = target: T3, Heat shock factor protein 1 (Mus musculus, UniProt P38532); test: decrease of HSF1-responsive luciferase luminescence – cell-based, NIH3T3, dose retest, confirmation (AID 2382); format: functional;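 also: NIH3T3 fibroblasts with HSF1-driven luciferase reporter stressed by proteasome inhibitor MG132; luminescence from HSF1-driven luciferase expression after 8 hours of MG132 stress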
# T3 sequence (P38532 whole entry): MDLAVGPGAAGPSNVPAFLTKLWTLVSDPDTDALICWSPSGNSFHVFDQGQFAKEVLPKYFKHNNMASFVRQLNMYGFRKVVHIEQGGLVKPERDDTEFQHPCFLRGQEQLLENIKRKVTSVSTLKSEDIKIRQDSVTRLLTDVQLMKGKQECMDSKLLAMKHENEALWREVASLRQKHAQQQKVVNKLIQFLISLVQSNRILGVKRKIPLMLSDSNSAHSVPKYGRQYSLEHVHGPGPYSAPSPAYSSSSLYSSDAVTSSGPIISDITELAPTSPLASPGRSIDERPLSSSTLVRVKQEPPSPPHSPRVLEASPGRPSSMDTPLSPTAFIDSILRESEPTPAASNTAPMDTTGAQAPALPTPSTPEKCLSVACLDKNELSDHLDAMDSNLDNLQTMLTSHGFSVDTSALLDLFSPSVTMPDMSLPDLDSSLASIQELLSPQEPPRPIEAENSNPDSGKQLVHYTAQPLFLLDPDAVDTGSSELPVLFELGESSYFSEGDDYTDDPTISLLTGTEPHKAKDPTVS
# [10] = alpha-synuclein stem-loop luciferase translation blockers – H4 neuroglioma cells, luminescence, confirmation (AID 1988); format: functional, cell-based
# [11] = alpha-synuclein stem-loop translation blockers – luminescence, H4 neuroglioblastoma cells, dose confirmation, confirmation (AID 2454); format: functional, cell-based;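 also: H4 neuroglioblastoma cells carrying an alpha-synuclein 5'UTR luciferase reporter; potency for inhibition of the luciferase signal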
# [12] = target: T4, Tyrosine-protein phosphatase non-receptor type 7 (Homo sapiens, UniProt P35236); format: functional
# T4 sequence (P35236 whole entry): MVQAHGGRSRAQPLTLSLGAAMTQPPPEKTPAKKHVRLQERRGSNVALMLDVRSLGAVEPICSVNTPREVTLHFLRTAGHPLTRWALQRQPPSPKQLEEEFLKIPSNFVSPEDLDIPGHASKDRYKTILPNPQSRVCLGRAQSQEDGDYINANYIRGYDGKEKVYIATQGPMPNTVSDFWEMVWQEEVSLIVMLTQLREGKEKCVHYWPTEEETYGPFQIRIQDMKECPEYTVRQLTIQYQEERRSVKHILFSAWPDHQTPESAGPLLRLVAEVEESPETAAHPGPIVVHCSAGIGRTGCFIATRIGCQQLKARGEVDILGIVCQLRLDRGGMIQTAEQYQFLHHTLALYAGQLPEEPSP
# [13] = target: Glyceraldehyde-3-phosphate dehydrogenase (Homo sapiens, UniProt P04406)
# [14] = target: T5, Dual specificity protein phosphatase 6 (Rattus norvegicus, UniProt Q64346)
# T5 sequence (Q64346 whole entry): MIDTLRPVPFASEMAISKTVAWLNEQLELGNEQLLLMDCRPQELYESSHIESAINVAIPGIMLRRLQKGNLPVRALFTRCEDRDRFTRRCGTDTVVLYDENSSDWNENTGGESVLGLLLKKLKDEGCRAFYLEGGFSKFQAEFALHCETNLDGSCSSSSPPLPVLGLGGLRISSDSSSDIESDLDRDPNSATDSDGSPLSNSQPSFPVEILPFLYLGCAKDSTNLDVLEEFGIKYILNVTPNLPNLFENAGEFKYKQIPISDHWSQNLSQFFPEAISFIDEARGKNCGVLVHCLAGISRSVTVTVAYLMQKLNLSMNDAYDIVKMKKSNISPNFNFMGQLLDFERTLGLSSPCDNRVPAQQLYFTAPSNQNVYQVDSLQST
# [15] = target: T5, Dual specificity protein phosphatase 6; format: functional
# [16] = tested on: Streptococcus sp. 'group A'; test: Streptococcus pyogenes SK(-)GAS viability under kanamycin – luminescence, BacTiterGlo, confirmation, counter-screen for streptokinase expression inhibitor project, dose response (AID 1900); format: functional, organism-based
# [17] = target: Serine/threonine-protein phosphatase PP1-alpha catalytic subunit (Homo sapiens, UniProt P62136); test: inhibition of protein phosphatase 1 activity – biochemical, fluorescence, dose response (AID 2403);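 also: phosphatase turnover of OMFP into fluorescent 3-O-methylfluorescein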
# Streptokinase A = target: T6, Streptokinase A (Streptococcus pyogenes serotype M1, UniProt P10520); test: viability-normalized secreted streptokinase activity reduction – plasminogen activation absorbance, OD405, dose response (AID 1914); format: functional, Streptococcus pyogenes M1 GAS;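 also: secreted streptokinase activity via plasminogen activation per viability signal from cell pellet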
# T6 sequence (P10520 whole entry): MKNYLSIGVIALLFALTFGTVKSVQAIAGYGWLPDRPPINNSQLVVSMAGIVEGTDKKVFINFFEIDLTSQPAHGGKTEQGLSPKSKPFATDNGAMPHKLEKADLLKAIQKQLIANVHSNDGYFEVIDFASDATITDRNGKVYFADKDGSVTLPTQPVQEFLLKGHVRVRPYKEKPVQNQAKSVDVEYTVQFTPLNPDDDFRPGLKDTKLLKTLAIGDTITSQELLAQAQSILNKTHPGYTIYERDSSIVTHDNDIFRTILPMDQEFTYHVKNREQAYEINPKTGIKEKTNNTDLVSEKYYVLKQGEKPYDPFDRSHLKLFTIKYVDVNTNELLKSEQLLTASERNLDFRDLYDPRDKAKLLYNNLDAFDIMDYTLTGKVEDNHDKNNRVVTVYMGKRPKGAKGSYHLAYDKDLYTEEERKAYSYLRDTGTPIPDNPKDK
# [18] = Trypanosoma cruzi growth suppression in host cells – NIH3T3 host cells, beta-gal luminescence, confirmation (AID 2044); format: functional, cell-based;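 also: intracellular parasites grown in NIH/3T3 mouse fibroblasts as host cells; luminescent beta-galactosidase reporter signal from transgenic T. cruzi replicating inside host cells; inhibitors lower the luminescence signal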
# [19] = target: Serine/threonine-protein phosphatase (Homo sapiens, UniProt Q9BPW0); test: Counterscreen for inhibitors of PP1: fluorescence-based biochemical high throughput dose response assay to identify inhibitors of Protein Phosphatase 5 (PP5). [Related pubchem assays: 2034 (Summary (PP5 inhibitors)), 1987 (PP5 inhibitors in singlate), 2235 (PP1 inhibitors in singlate)]
# [20] = NIH3T3 cell viability loss – ATP luminescence, mouse fibroblasts, counter-screen, dose response (AID 2010); format: functional, cell-based;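 also: cells exposed to compound for about 90 hours before reading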
# Streptococcus = test: GAS UMAA2166 growth inhibition – luminescence, BacTiterGlo, counter-screen for streptokinase expression inhibitor project, dose response (AID 1915); format: functional, organism-based;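 also: potency for reduction of bacterial viability or growth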
# INS1 = test: INS-1E survival protection against cytokine death – cell-based, luminescence, retest, dose response (AID 449756); format: functional; conditions: Rattus norvegicus;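 also: cell death triggered by IL-1 beta plus TNF-alpha plus IFN-gamma mixture; protective hits raise ATP signal compared with cytokine alone wells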
# [21] = target: T7, Polyadenylate-binding protein 1 (Homo sapiens, UniProt P11940); test: MLLE binding blockers, Cy5 peptide tracer – biochemical, fluorescence polarization, Cy5-PAM2 peptide, secondary, miRNA deadenylation inhibitor project, dose response (AID 602260); format: functional; conditions: read-out: IC50_Mean
# T7 sequence (P11940 whole entry, the tested form may be a part): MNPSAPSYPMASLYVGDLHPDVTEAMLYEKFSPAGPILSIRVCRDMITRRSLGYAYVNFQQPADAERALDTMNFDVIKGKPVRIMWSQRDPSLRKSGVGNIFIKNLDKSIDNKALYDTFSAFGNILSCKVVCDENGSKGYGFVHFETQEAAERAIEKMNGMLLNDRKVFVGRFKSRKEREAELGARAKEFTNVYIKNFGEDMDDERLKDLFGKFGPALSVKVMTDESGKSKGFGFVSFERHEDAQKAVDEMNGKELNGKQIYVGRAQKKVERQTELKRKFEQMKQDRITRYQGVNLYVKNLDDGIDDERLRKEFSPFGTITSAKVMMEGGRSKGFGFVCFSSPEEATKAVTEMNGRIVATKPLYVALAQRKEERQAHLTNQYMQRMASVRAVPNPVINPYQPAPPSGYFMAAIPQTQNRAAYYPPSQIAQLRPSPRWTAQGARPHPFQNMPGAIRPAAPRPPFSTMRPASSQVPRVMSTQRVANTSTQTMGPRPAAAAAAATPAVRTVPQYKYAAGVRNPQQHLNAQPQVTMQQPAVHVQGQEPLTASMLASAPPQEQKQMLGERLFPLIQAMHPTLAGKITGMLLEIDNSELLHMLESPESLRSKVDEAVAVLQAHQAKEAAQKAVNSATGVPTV
# [22] = target: T7, Polyadenylate-binding protein 1; test: MLLE domain peptide-binding blockers, IC50 – biochemical, fluorescence polarization, FITC-PAM2 peptide, dose response (AID 602259); format: functional; conditions: read-out: IC50_Mean
# [23] = target: DNA dC->dU-editing enzyme APOBEC-3A (Homo sapiens, UniProt P31941); test: A3A deaminase inhibition for selectivity – biochemical, dose response (AID 504722); format: functional
# [24] = target: DNA dC->dU-editing enzyme APOBEC-3G (Homo sapiens, UniProt Q9HC16); test: Dose Response confirmation of small molecule APOBEC3G DNA Deaminase Inhibitors via a fluorescence-based single-stranded DNA deaminase assay. [Related pubchem assays (depositor defined):AID493012, AID493028]; format: functional
# H9c2 = test: cells; format: functional, cell-based; conditions: Rattus norvegicus, H9c2, Myocardium;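 also: confirmatory concentration-response retest of ultra-high-throughput screening hits for modulation of myocardial damage; cell death induced by hydrogen peroxide oxidative stress; compound pretreatment for 60 min then peroxide exposure for 2 h; potency is for protecting the cells against peroxide damage rather than for killing them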
smiles,measurement,setting,value
C=CCCC/C=C(/C)C(OCc1ccc(OC)cc1)C(CC/C=C(\C)C(N)=O)OC (configuration not stated),AC50,Cytochrome P450 2C19,2.51 µM (inconclusive)
same,AC50,Cytochrome P450 2D6,3.16 µM (inconclusive)
C/C(=N\O)c1ccc2c3ccccc3n(C)c2c1,EC50,[1],> 50 µM (not active)
CCN(C1CCCCC1)S(=O)(=O)c1ccc(OC)c(C)c1,EC50,[2],> 50 µM (active)
same,EC50,[3],3.88 µM (active)
COC(=O)c1cc2c(C)cc3ccc(C)cn3c-2c1C(=O)OC,IC50,Protein Rev,12.2 µM (not active)
same,IC50,[4],> 2.21 µM (active)
COc1cc(C(CC(=O)N2CCCC2)c2c(OC)cc(OC)c3c(-c4ccccc4)cc(=O)oc23)cc(OC)c1OC (configuration not stated),EC50,[5],6.57 µM (active)
Cc1cc(/C=c2/sc3nc4ccccc4n3c2=O)c(C)n1-c1ccccn1,EC50,[6],0.084 µM (active)
same,EC50,[7],> 300 µM (not active)
same,EC50,cells,0.076 µM (active)
same,EC50,[8],> 300 µM (not active)
same,EC50,[9],< 0.16 µM (active)
same,EC50,[10],< 0.1 µM (active)
same,EC50,[11],0.092 µM (active)
CCOC(=O)C1Nc2c(OC)cccc2C2OCCC12 (configuration not stated),IC50,[12],> 100 µM (not active)
same,IC50,[13],> 100 µM (not active)
same,IC50,[14],> 100 µM (inactive)
same,IC50,[15],> 100 µM (inactive)
CCOC(=O)c1cnc(-n2nc(C)cc2C)nc1NCc1ccccc1,EC50,[16],8.49 µM (active)
same,IC50,[17],5.83 µM (active)
same,EC50,Streptokinase A,> 150 µM (not active)
same,EC50,[18],2.09 µM (active)
same,IC50,[19],> 67 µM (not active)
same,EC50,[20],> 60 µM (not active)
same,EC50,Streptococcus,9.69 µM (active)
same,AC50,INS1,5.4 µM (active)
O=c1[nH]c2cc3ccccc3cc2nc1C(F)(F)F,IC50,Protein Rev,> 75.5 µM (not active)
same,IC50,[4],2.9 µM (active)
same,IC50,[21],> 66 µM (inactive)
same,IC50,[22],46.2 µM (inactive)
Cc1ccsc1/C=N/n1c(S)nnc1-c1ccco1,IC50,[23],> 100 µM (inactive)
same,IC50,[24],1.79 µM (active)
CCC(=O)N1CCN(c2ccccc2NC(=O)COc2cc(C)ccc2C(C)C)CC1,EC50,[3],2.97 µM (active)
same,IC50,H9c2,> 79 µM (inactive)
CC[C@@]12CCCN3CC[C@@]4(c5ccc(OC)c(O)c5N(C(C)=O)[C@H]4CC1)[C@H]32,AC50,Cytochrome P450 2D6,20 µM (inconclusive)
CCCn1c(=O)nc(NCc2ccc(C)cc2)[nH]c1=O,IC50,[12],> 100 µM (not active)
same,IC50,[13],> 100 µM (not active)
same,IC50,[14],> 100 µM (inactive)
same,IC50,[15],> 100 µM (inactive)
CCc1ccc(Nc2n[n+](-c3ccccc3)c(-c3cc(OC)c(OC)cc3Br)s2)cc1,EC50,[5],21.2 µM (inactive)
C=CCNC(=O)CCCOc1cc(C)ccc1C,EC50,[1],> 50 µM (not active)

# — ChEMBL document CHEMBL1201862, “PubChem BioAssay data set” (2004)
